Laboratory results published in patent publication US12084436B2, “Heterocyclic compound” (Takeda Pharmaceutical Company Limited, priority 2019, dated 2024).

Target: T1, HDAC6 enzyme (Homo sapiens, UniProt Q9UBN7)
T1 construct: prepared by transducing full length HDAC6 gene into Sf-9 insect cells; GST; purchased SignalChem; host or cells: Sf-9 insect cells
T1 sequence (Q9UBN7 1-1215): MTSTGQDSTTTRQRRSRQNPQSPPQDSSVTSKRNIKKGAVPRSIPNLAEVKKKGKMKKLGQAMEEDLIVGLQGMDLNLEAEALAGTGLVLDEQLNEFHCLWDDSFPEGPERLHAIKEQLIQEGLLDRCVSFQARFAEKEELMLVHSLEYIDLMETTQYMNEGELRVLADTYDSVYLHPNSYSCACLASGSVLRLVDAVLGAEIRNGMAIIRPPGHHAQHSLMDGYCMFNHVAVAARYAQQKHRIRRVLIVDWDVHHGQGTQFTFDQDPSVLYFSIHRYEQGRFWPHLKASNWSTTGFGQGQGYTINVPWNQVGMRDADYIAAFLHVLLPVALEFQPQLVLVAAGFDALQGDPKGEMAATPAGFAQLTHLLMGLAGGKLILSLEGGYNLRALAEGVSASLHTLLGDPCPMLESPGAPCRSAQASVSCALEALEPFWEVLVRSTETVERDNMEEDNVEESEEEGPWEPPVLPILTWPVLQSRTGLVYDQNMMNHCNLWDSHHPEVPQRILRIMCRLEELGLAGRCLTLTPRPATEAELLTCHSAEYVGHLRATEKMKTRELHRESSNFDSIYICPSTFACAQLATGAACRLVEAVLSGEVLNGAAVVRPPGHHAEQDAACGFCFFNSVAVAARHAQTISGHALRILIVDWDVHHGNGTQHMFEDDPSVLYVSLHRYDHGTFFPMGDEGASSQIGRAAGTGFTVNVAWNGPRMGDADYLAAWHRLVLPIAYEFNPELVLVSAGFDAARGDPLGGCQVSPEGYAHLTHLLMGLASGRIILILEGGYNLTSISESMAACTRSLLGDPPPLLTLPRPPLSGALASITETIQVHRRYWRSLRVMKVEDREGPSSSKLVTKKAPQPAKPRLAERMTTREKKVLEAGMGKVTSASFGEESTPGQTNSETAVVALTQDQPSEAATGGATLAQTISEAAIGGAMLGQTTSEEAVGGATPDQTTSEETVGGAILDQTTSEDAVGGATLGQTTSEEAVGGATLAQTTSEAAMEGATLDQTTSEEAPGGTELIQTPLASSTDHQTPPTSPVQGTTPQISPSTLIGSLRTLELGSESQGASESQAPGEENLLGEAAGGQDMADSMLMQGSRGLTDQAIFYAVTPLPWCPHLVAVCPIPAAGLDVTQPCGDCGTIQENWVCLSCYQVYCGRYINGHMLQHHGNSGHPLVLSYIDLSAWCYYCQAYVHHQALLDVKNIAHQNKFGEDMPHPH
Test: HDAC6 enzyme inhibitory assay (HDAC-Glo I/II Assay kit, luminescence)
Type: biochemical
Details: 10 μM test compound, wells without enzyme = 100% inhibition; for inhibition at 10 µM: read-out: HDAC6 inhibitory rate (%) (10 μM)
In short: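 Full-length human HDAC6, GST-purified from Sf-9 cells, was preincubated with compound for 60 min at room temperature in Tris-HCl pH 7.5 buffer with glutathione and Tween-20. Substrate-developer was then added, and luminescence was read after 20 min at room temperature. Inhibition was expressed relative to no-enzyme wells, taken as 100% inhibition.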

| inhibition at 10 µM | HDAC6 inhibitory rate (%) (10 μM) | SMILES |
| --- | --- | --- |
| 98% | – | CN(Cc1cc(Cl)ccc1O)N1Cc2ccc(-c3nnc(C(F)F)o3)cc2C1=O [Example 42c, 2-{[(5-chloro-2-hydroxyphenyl)methyl](methyl)amino}-6-[5-(difluoromethyl)-1,3,4-oxadiazol-2-yl]-2,3-dihydro-1H-isoindol-1-one] |
| 98% | – | CCOC(=O)CCCN(C)N1Cc2ccc(-c3nnc(C(F)F)o3)cc2C1=O [Example 50c, ethyl 4-[{6-[5-(difluoromethyl)-1,3,4-oxadiazol-2-yl]-1-oxo-1,3-dihydro-2H-isoindol-2-yl}(methyl)amino]butanoate] |
| 104% | – | COc1ccc(Cn2ccnc2-c2cc(-c3nnc(C(F)F)o3)ccn2)cc1 [Example 80a, 4-[5-(difluoromethyl)-1,3,4-oxadiazol-2-yl]-2-{1-[(4-methoxyphenyl)methyl]-1H-imidazol-2-yl}pyridine] |
| 75% | – | C[C@@]1(c2ccc(F)cc2)Cc2ncc(-c3nnc(C(F)F)o3)cc2C(=O)N1CC(F)F [Example 54b, (7S)-6-(2,2-difluoroethyl)-3-[5-(difluoromethyl)-1,3,4-oxadiazol-2-yl]-7-(4-fluorophenyl)-7-methyl-7,8-dihydro-1,6-naphthyridin-5(6H)-one] |
| 99% | – | Cn1cc(Cn2ccnc2-c2cc(F)cc(-c3nnc(C(F)F)o3)c2)cn1 [Example 59a, 2-(difluoromethyl)-5-(3-fluoro-5-{1-[(1-methyl-1H-pyrazol-4-yl)methyl]-1H-imidazol-2-yl}phenyl)-1,3,4-oxadiazole] |
| 100% | – | CN(Cc1cccc2cnccc12)N1Cc2ccc(-c3nnc(C(F)F)o3)cc2C1=O [Example 47c, 6-[5-(difluoromethyl)-1,3,4-oxadiazol-2-yl]-2-{[(isoquinolin-5-yl)methyl](methyl)amino}-2,3-dihydro-1H-isoindol-1-one] |
| 100% | – | C[C@]1(c2ccc(F)cc2)Cc2ncc(-c3nnc(C(F)F)o3)cc2C(=O)N1CC(F)F [Example 55b, (7R)-6-(2,2-difluoroethyl)-3-[5-(difluoromethyl)-1,3,4-oxadiazol-2-yl]-7-(4-fluorophenyl)-7-methyl-7,8-dihydro-1,6-naphthyridin-5(6H)-one] |
| 103% | – | Cc1ccc(Cn2ccnc2-c2cc(-c3nnc(C(F)F)o3)ccn2)cc1 [Example 78a] |
| 100% | – | CN(Cc1cc(O)ccc1F)N1Cc2ccc(-c3nnc(C(F)F)o3)cc2C1=O [Example 49c, 6-[5-(difluoromethyl)-1,3,4-oxadiazol-2-yl]-2-{[(2-fluoro-5-hydroxyphenyl)methyl](methyl)amino}-2,3-dihydro-1H-isoindol-1-one] |
| 100% | – | CN1C(=O)c2cc(-c3nnc(C(F)F)o3)ccc2OC1c1ccc(F)cc1 (stereo not drawn) [Example 44b, 6-[5-(difluoromethyl)-1,3,4-oxadiazol-2-yl]-2-(4-fluorophenyl)-3-methyl-2,3-dihydro-4H-1,3-benzoxazin-4-one] |
| 100% | – | Cc1cccc(Cn2ccnc2-c2cc(-c3nnc(C(F)F)o3)ccn2)c1 [Example 83a, 4-[5-(difluoromethyl)-1,3,4-oxadiazol-2-yl]-2-{1-[(3-methylphenyl)methyl]-1H-imidazol-2-yl}pyridine] |

The remaining lines, values behind:

| SMILES | inhibition at 10 µM | HDAC6 inhibitory rate (%) (10 μM) |
| --- | --- | --- |
| Fc1cc(-c2nnc(C(F)F)o2)cc(-c2ncccc2OC2CCOCC2)c1 [Example 8a, 2-{3-[5-(difluoromethyl)-1,3,4-oxadiazol-2-yl]-5-fluorophenyl}-3-[(oxan-4-yl)oxy]pyridine] | 98% | – |
| O=C1c2cc(-c3nnc(C(F)F)o3)ccc2CN1N(Cc1ccc(F)cc1)CC1CCOCC1 [Example 2c, 6-[5-(difluoromethyl)-1,3,4-oxadiazol-2-yl]-2-{[(4-fluorophenyl)methyl][(oxan-4-yl)methyl]amino}-2,3-dihydro-1H-isoindol-1-one] | 99% | – |
| O=C1NN(c2ccc(F)cc2)Cc2ccc(-c3nnc(C(F)F)o3)cc21 [Example 2b, 7-[5-(difluoromethyl)-1,3,4-oxadiazol-2-yl]-3-(4-fluorophenyl)-3,4-dihydrophthalazin-1(2H)-one] | 100% | – |
| CN1C(=O)c2cc(-c3nnc(C(F)F)o3)ccc2CC1(C)c1ccc(F)cc1 (single isomer, unassigned; isomer 1) [Example 23b, 7-[5-(difluoromethyl)-1,3,4-oxadiazol-2-yl]-3-(4-fluorophenyl)-2,3-dimethyl-3,4-dihydroisoquinolin-1(2H)-one (optical isomer 1)] | – | 58% |
| O=C1c2cc(-c3nnc(C(F)F)o3)ccc2CN1NC1CCC(F)(F)CC1 [Example 35c, 2-[(4,4-difluorocyclohexyl)amino]-6-[5-(difluoromethyl)-1,3,4-oxadiazol-2-yl]-2,3-dihydro-1H-isoindol-1-one] | 93% | – |
| CN1C(=O)c2cc(-c3nnc(C(F)F)o3)ccc2OC1(C)c1cccc(Cl)c1 (stereo not drawn) [Example 19b, 2-(3-chlorophenyl)-6-[5-(difluoromethyl)-1,3,4-oxadiazol-2-yl]-2,3-dimethyl-2,3-dihydro-4H-1,3-benzoxazin-4-one] | 100% | – |
| Fc1cc(-c2nnc(C(F)F)o2)cc(-c2ncccc2OCC2CCOC2)c1 (stereo not drawn) [Example 12a, 2-{3-[5-(difluoromethyl)-1,3,4-oxadiazol-2-yl]-5-fluorophenyl}-3-[(oxolan-3-yl)methoxy]pyridine] | 99% | – |
| O=C1c2cc(-c3nnc(C(F)F)o3)ccc2CN1Nc1ccc(F)c(F)c1 [Example 36c, 2-(3,4-difluoroanilino)-6-[5-(difluoromethyl)-1,3,4-oxadiazol-2-yl]-2,3-dihydro-1H-isoindol-1-one] | 98% | – |
| CN(Cc1ccc(F)cc1)N1Cc2ccc(-c3nnc(C(F)F)o3)cc2C1=O [Example 28c, 6-[5-(difluoromethyl)-1,3,4-oxadiazol-2-yl]-2-{[(4-fluorophenyl)methyl](methyl)amino}-2,3-dihydro-1H-isoindol-1-one] | 99% | – |
| CC(NN1Cc2ccc(-c3nnc(C(F)F)o3)cc2C1=O)c1ccc(F)cc1 (stereo not drawn) [Example 22c, 6-[5-(difluoromethyl)-1,3,4-oxadiazol-2-yl]-2-{[1-(4-fluorophenyl)ethyl]amino}-2,3-dihydro-1H-isoindol-1-one] | 100% | – |
| FC(F)c1nnc(-c2ccnc(-c3nccn3Cc3ccccn3)c2)o1 [Example 3a, 4-[5-(difluoromethyl)-1,3,4-oxadiazol-2-yl]-2-{1-[(pyridin-2-yl)methyl]-1H-imidazol-2-yl}pyridine] | 99% | – |
| CN1C(=O)c2cc(-c3nnc(C(F)F)o3)ccc2OC1(C)c1ccc(F)cc1 (stereo not drawn) [Example 7b, 6-[5-(difluoromethyl)-1,3,4-oxadiazol-2-yl]-2-(4-fluorophenyl)-2,3-dimethyl-2,3-dihydro-4H-1,3-benzoxazin-4-one] | 100% | – |
| CN1C(=O)c2cc(-c3nnc(C(F)F)o3)ccc2OC1(C)c1ccc(C#N)cc1 (single isomer, unassigned; isomer 1) [Example 36b, 4-{6-[5-(difluoromethyl)-1,3,4-oxadiazol-2-yl]-2,3-dimethyl-4-oxo-3,4-dihydro-2H-1,3-benzoxazin-2-yl}benzonitrile (optical isomer 1)] | – | 62% |
| CCNC(=O)Cn1ccnc1-c1cc(F)cc(-c2nnc(C(F)F)o2)c1 [Example 32a, 2-(2-{3-[5-(difluoromethyl)-1,3,4-oxadiazol-2-yl]-5-fluorophenyl]-1H-imidazol-1-yl)-N-ethylacetamide] | 91% | – |
| COCCOC(=O)N(Cc1ccc(F)cc1)N1Cc2ccc(-c3nnc(C(F)F)o3)cc2C1=O [Example 11c, 2-methoxyethyl {6-[5-(difluoromethyl)-1,3,4-oxadiazol-2-yl]-1-oxo-1,3-dihydro-2H-isoindol-2-yl}[(4-fluorophenyl)methyl]carbamate] | 99% | – |
| COc1ccc(C2(C)Oc3ccc(-c4nnc(C(F)F)o4)cc3C(=O)N2C)cc1 (stereo not drawn) [Example 18b, 6-[5-(difluoromethyl)-1,3,4-oxadiazol-2-yl]-2-(4-methoxyphenyl)-2,3-dimethyl-2,3-dihydro-4H-1,3-benzoxazin-4-one] | 99% | – |
